# Where two headings read alike, the source gives them in different places.
# Key:
# hQC = hQC (Homo sapiens, UniProt Q16769); experiment: Inhibitor assay for glutaminyl cyclase activity (fluorometric, H-Gln-βNA / H-Gln-AMC); format: biochemical
# Outline: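 Coupled fluorometric assay at 30 °C with pyroglutamyl aminopeptidase, in Tris/HCl pH 8.0 with EDTA, substrate H-Gln-βNA (0.2 mM; ex/em 320/410 nm) or H-Gln-AMC (ex/em 380/460 nm), initiated by QC. Screening: 4 mM inhibitor, substrate at 1 KM; Ki from progress curves fitted to competitive inhibition.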
# [1] = compound from preparative synthesis, purified, read-out: IC50 hQC
# Chain of hQC (Q16769 29-361): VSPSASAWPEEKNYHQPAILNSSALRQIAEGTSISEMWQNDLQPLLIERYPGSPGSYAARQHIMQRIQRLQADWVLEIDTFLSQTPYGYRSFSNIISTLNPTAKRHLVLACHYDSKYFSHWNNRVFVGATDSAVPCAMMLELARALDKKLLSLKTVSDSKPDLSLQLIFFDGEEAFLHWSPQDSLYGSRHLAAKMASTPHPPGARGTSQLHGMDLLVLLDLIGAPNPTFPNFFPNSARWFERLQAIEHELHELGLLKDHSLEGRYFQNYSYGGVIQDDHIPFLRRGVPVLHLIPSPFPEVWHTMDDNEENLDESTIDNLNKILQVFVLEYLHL
IC50 (hQC; [1]),IC50 (hQC; read-out: IC50),melting point,SMILES
246 nM,40 nM,266 °C,"CCCC(=O)C1=C(O)C(=O)N(c2ccc3[nH]cnc3c2)C1c1ccc2nonc2c1 (centres unmarked) [Compound 421, 1-(1H-Benzoimidazol-5-yl)-5-benzo[c][1,2,5]oxadiazol-5-yl-4-butyryl-3-hydroxy-1,5-dihydro-pyrrol-2-one]"
2.6 nM,4 nM,150 °C,"O=C1C(O)=C(c2ccccc2)C(c2cc(F)cc(F)c2F)N1c1ccc2[nH]cnc2c1 (centres unmarked) [Compound 445, 1-(1H-Benzoimidazol-5-yl)-3-hydroxy-4-phenyl-5-(2,3,5-trifluoro-phenyl)-1,5-dihydro-pyrrol-2-one]"
1.2 nM,4 nM,294 °C,"CCCC(=O)C1=C(O)C(=O)N(c2ccc3[nH]cnc3c2)C1c1ccc(-c2ccccn2)cc1 (centres unmarked) [Compound 387, 1-(1H-Benzoimidazol-5-yl)-4-butyryl-3-hydroxy-5-(4-pyridin-2-yl-phenyl)-1,5-dihydro-pyrrol-2-one]"
11.4 nM,4 nM,170 °C,"O=C(C1=C(O)C(=O)N(c2ccc3[nH]cnc3c2)C1c1ccc2nonc2c1)C1CC1 (centres unmarked) [Compound 440, 1-(1H-Benzoimidazol-5-yl)-5-benzo[c][1,2,5]oxadiazol-5-yl-4-cyclopropanecarbonyl-3-hydroxy-1,5-dihydro-pyrrol-2-one]"
28.3 nM,4 nM,175 °C,"CC(=O)C1=C(O)C(=O)N(c2ccc3[nH]cnc3c2)C1c1ccc2nonc2c1 (centres unmarked) [Compound 403, 4-Acetyl-1-(1H-benzoimidazol-5-yl)-5-benzo[c][1,2,5]oxadiazol-5-yl-3-hydroxy-1,5-dihydro-pyrrol-2-one]"
5.8 nM,4 nM,174 °C,"CC(=O)C1=C(O)C(=O)N(c2ccc3[nH]cnc3c2)C1c1ccc2cccc(O)c2n1 (centres unmarked) [Compound 277, 4-Acetyl-1-(1H-benzoimidazol-5-yl)-3-hydroxy-5-(8-hydroxy-quinolin-2-yl)-1,5-dihydro-pyrrol-2-one]"
,400 nM,,"CC1=C(O)C(=O)N(CCCn2ccnc2)C1c1ccco1 (centres unmarked) [Compound 47, 5-(Furan-2-yl-)3-hydroxy-1-(3-imidazol-1-yl-propyl)-4-methyl-1,5-dihydro-pyrrol-2-one]"
,6700 nM,,"CC(C)/C=C/C1C(c2ccccc2)=C(O)C(=O)N1CCCn1ccnc1 (centres unmarked) [Compound 83, 3-Hydroxy-1-(3-imidazol-1-yl-propyl)-5-(3-methyl-but-1-enyl)-4-phenyl-1,5-dihydro-pyrrol-2-one]"
,9490 nM,,"Cc1ccc2c(C3C(c4c[nH]c5ccccc45)=C(O)C(=O)N3c3ccc4[nH]cnc4c3)c[nH]c2c1 (centres unmarked) [Compound 320, 1-(1H-Benzoimidazol-5-yl)-3-hydroxy-4-(1H-indol-3-yl)-5-(6-methyl-1H-indol-3-yl)-1,5-dihydro-pyrrol-2-one]"
,4900 nM,,"CCCC1C(C)=C(O)C(=O)N1CCCn1ccnc1 (centres unmarked) [Compound 22, 3-Hydroxy-1-(3-imidazol-1-yl-propyl)-4-methyl-5-propyl-1,5-dihydro-pyrrol-2-one]"
,3100 nM,,"CC1=C(O)C(=O)N(CCCn2ccnc2)C1c1ccncc1 (centres unmarked) [Compound 44, 3-Hydroxy-1-(3-imidazol-1-yl-propyl)-4-methyl-5-pyridin-4-yl-1,5-dihydro-pyrrol-2-one]"
,400 nM,,"CCCC1C(c2c[nH]c3ccccc23)=C(O)C(=O)N1CCCn1ccnc1 (centres unmarked) [Compound 115, 3-Hydroxy-1-(3-imidazol-1-yl-propyl)-4-(1H-indol-3-yl)-5-propyl-1,5-dihydro-pyrrol-2-one]"
,40 nM,,"CCC1=C(O)C(=O)N(CCCn2ccnc2)C1c1c[nH]c2ccccc12 (centres unmarked) [Compound 241, 4-Ethyl-3-hydroxy-1-(3-imidazol-1-yl-propyl)-5-(1H-indol-3-yl)-1,5-dihydro-pyrrol-2-one]"
,580 nM,,"Cc1ccc(C2C(C(=O)C3CCCCC3)=C(O)C(=O)N2c2ccc3[nH]cnc3c2)o1 (centres unmarked) [Compound 273, 1-(1H-Benzoimidazol-5-yl)-4-cyclohexanecarbonyl-3-hydroxy-5-(5-methyl-furan-2-yl)-1,5-dihydro-pyrrol-2-one]"
,2200 nM,,"CC1=C(O)C(=O)N(CCCn2ccnc2)C1C1=CCCCC1 (centres unmarked) [Compound 36, 5-Cyclohex-1-enyl-3-hydroxy-1-(3-imidazol-1-yl-propyl)-4-methyl-1,5-dihydro-pyrrol-2-one]"
,400 nM,,"O=C1C(O)=C(c2c[nH]c3ccccc23)C(C2=CCCCC2)N1CCCn1ccnc1 (centres unmarked) [Compound 129, 5-Cyclohex-1-enyl-3-hydroxy-1-(3-imidazol-1-yl-propyl)-4-(1H-indol-3-yl)-1,5-dihydro-pyrrol-2-one]"
,8770 nM,,"O=C(O)CC1=C(O)C(=O)N(c2ccc3[nH]cnc3c2)C1c1cccc2cccnc12 (centres unmarked) [Compound 354, [1-(1H-Benzoimidazol-5-yl)-4-hydroxy-5-oxo-2-quinolin-8-yl-2,5-dihydro-1H-pyrrol-3-yl]-acetic acid]"
,3100 nM,,"CC1=C(O)C(=O)N(CCCn2ccnc2)C1/C=C/c1ccccc1 (centres unmarked) [Compound 33, 3-Hydroxy-1-(3-imidazol-1-yl-propyl)-4-methyl-5-(styryl)-1,5-dihydro-pyrrol-2-one]"

IC50 (hQC; [1]),IC50 (hQC; read-out: IC50),melting point,SMILES
,310 nM,,"O=C(C1=C(O)C(=O)N(c2ccc3[nH]cnc3c2)C1c1ccc(CO)o1)C1CC1 (centres unmarked) [Compound 418, 1-(1H-Benzoimidazol-5-yl)-4-cyclopropanecarbonyl-3-hydroxy-5-(5-hydroxymethyl-furan-2-yl)-1,5-dihydro-pyrrol-2-one]"
,3910 nM,,"CC1=C(O)C(=O)N(c2ccc3[nH]cnc3c2)C1c1coc2ccccc2c1=O (centres unmarked) [Compound 356, 1-(1H-Benzoimidazol-5-yl)-3-hydroxy-4-methyl-5-(4-oxo-4H-chromen-3-yl)-1,5-dihydro-pyrrol-2-one]"
,670 nM,,"O=C1C(O)=C(c2ccc(O)cc2)C(c2cccc(F)c2)N1c1ccc2[nH]cnc2c1 (centres unmarked) [Compound 363, 1-(1H-Benzoimidazol-5-yl)-5-(3-fluoro-phenyl)-3-hydroxy-4-(4-hydroxy-phenyl)-1,5-dihydro-pyrrol-2-one]"
,1300 nM,,"Cc1ccc(C2C(C(C)C)=C(O)C(=O)N2CCCn2ccnc2)o1 (centres unmarked) [Compound 57, 3-Hydroxy-1-(3-imidazol-1-yl-propyl)-4-isopropyl-5-(5-methyl-furan-2-yl)-1,5-dihydro-pyrrol-2-one]"
,4090 nM,,"CC(C)(C)C(=O)C1=C(O)C(=O)N(c2ccc3[nH]cnc3c2)C1c1cccc(F)c1F (centres unmarked) [Compound 383, 1-(1H-Benzoimidazol-5-yl)-5-(2,3-difluoro-phenyl)-4-(2,2-dimethyl-propionyl)-3-hydroxy-1,5-dihydro-pyrrol-2-one]"
,5710 nM,,"O=C1C(O)=C(c2cccc(O)c2)C(c2ccc(O)c(Br)c2)N1c1ccc2[nH]cnc2c1 (centres unmarked) [Compound 294, 1-(1H-Benzoimidazol-5-yl)-5-(3-bromo-4-hydroxy-phenyl)-3-hydroxy-4-(3-hydroxy-phenyl)-1,5-dihydro-pyrrol-2-one]"
,7600 nM,,"CC1=C(O)C(=O)N(CCCn2ccnc2)C1c1cc[nH]n1 (centres unmarked) [Compound 23, 3-Hydroxy-1-(3-imidazol-1-yl-propyl)-4-methyl-5-(1H-pyrazol-3-yl)-1,5-dihydro-pyrrol-2-one]"
,2290 nM,,"CC(=O)C1=C(O)C(=O)N(c2ccc3[nH]cnc3c2)C1C1CC1 (centres unmarked) [Compound 266, 4-Acetyl-1-(1H-benzoimidazol-5-yl)-5-cyclopropyl-3-hydroxy-1,5-dihydro-pyrrol-2-one]"
,1030 nM,,"CC(=O)C1=C(O)C(=O)N(c2ccc3[nH]cnc3c2)C1c1nccs1 (centres unmarked) [Compound 349, 4-Acetyl-1-(1H-benzoimidazol-5-yl)-3-hydroxy-5-thiazol-2-yl-1,5-dihydro-pyrrol-2-one]"
,3100 nM,,"CC(C)C1=C(O)C(=O)N(CCCn2ccnc2)C1/C=C/c1ccccc1 (centres unmarked) [Compound 64, 3-Hydroxy-1-(3-imidazol-1-yl-propyl)-4-isopropyl-5-(styryl)-1,5-dihydro-pyrrol-2-one]"
,400 nM,,"CCC1=C(O)C(=O)N(CCCn2ccnc2)C1c1ccc(C)c(C)c1 (centres unmarked) [Compound 231, 5-(3,4-Dimethyl-phenyl)-4-ethyl-3-hydroxy-1-(3-imidazol-1-yl-propyl)-1,5-dihydro-pyrrol-2-one]"
,2200 nM,,"COc1ccc(C2C(c3cccc(O)c3)=C(O)C(=O)N2CCCn2ccnc2)cc1 (centres unmarked) [Compound 13, 3-Hydroxy-4-(3-hydroxy-phenyl)-1-(3-imidazol-1-yl-propyl)-5-(4-methoxy-phenyl)-1,5-dihydro-pyrrol-2-one]"
,400 nM,,"CCCC1C(c2ccccc2)=C(O)C(=O)N1CCCn1ccnc1 (centres unmarked) [Compound 80, 3-Hydroxy-1-(3-imidazol-1-yl-propyl)-4-phenyl-5-propyl-1,5-dihydro-pyrrol-2-one]"
,3730 nM,,"O=C(C1=C(O)C(=O)N(c2ccc3[nH]cnc3c2)C1c1ccc(CO)o1)c1ccncc1 (centres unmarked) [Compound 272, 1-(1H-Benzoimidazol-5-yl)-3-hydroxy-5-(5-hydroxymethyl-furan-2-yl)-4-(pyridine-4-carbonyl)-1,5-dihydro-pyrrol-2-one]"
,5800 nM,,"Cn1cc(C2C(CC(=O)O)=C(O)C(=O)N2c2ccc3[nH]cnc3c2)c2ccccc21 (centres unmarked) [Compound 322, [1-(1H-Benzoimidazol-5-yl)-4-hydroxy-2-(1-methyl-1H-indol-3-yl)-5-oxo-2,5-dihydro-1H-pyrrol-3-yl]-acetic acid]"
,3100 nM,,"O=C1C(O)=C(c2ccccc2)C(c2ccccc2O)N1CCCn1ccnc1 (centres unmarked) [Compound 87, 3-Hydroxy-5-(2-hydroxy-phenyl)-1-(3-imidazol-1-yl-propyl)-4-phenyl-1,5-dihydro-pyrrol-2-one]"
,40 nM,,"O=C1C(O)=C(c2ccc(O)cc2)C(c2cc(Cl)cc(Cl)c2O)N1CCCn1ccnc1 (centres unmarked) [Compound 147, 5-(3,5-Dichloro-2-hydroxy-phenyl)-3-hydroxy-4-(4-hydroxy-phenyl)-1-(3-imidazol-1-yl-propyl)-1,5-dihydro-pyrrol-2-one]"

# — US8278345B2, “Inhibitors of glutaminyl cyclase” (Probiodrug AG, priority 2006, dated 2012)
